Results: patent US9637490B2, “Antifungal 5,6-dihydro-4-[(difluoroethyl)phenyl]-4H-pyrrolo[1,2-α][1,4]benzodiazepine and 4-(difluoroethyl)phenyl-6H-pyrrolo[1,2-α][1,4]benzodiazepine derivatives” (Janssen Pharmaceutica NV, priority 2010, dated 2017)

Tests used:
Rhizopus oryzae IHEM5223 = experiment: Antifungal activity in vitro (resazurin susceptibility screen), Inf. J; type: cell-based; conditions: 37 °C, 24 hours, resa time 6 hours; for IC50: Rhizopus arrhizus
Protocol: (§1) The standard susceptibility screen was performed in 96-well plates (U-bottom, Greiner Bio-One). Serial dilutions (2-fold or 4-fold) of 20 mM compound stock solutions were made in 100% DMSO, followed by an intermediate dilution step in water. These serial dilutions (10 μl) were then spotted onto test-plates that could be stored in the dark at 4° C. for a maximum period of 2 weeks. An adequate broad dose-range was included with 64 μM as the highest in-test concentration. The culture medium RPMI-1640 was supplemented with L-glutamine, 2% glucose and buffered with 3-(N-morpholino)-propanesulfonic acid (MOPS) at pH 7.0±0.1. The different fungal species/isolates (Table 3a) were cryopreserved and 1/1000 diluted in medium just prior to use. A standard inoculum of 200 μl containing 10^3 colony-forming unit (cfu) was then added to each well. A positive control (100% growth=fungal culture without antifungal) and a negative control (0% growth=RPMI-MOPS medium) were included on each plate. Optimal incubation time and temperature were dependent on the fungal species and vary from 24 h for yeasts (37° C.) to one week or more for dermatophytes (27° C.). Inhibition of fungal growth was measured after adding 10 μl of 0.005% (w/v) resazurin (Sigma Aldrich) to each well, based on the principle that living cells convert the non-fluorescent blue resazurin into the pink and fluorescent resorufin, allowing fluorimetric reading (λhd ex 550 nm and μem 590 nm) after an additional incubation period (‘resa’ time mentioned in Table 3a). [table]

[1] = system: Scedosporium prolificans IHEM21157; experiment: Antifungal activity in vitro (resazurin susceptibility screen), Inf. I; type: cell-based; conditions: Lomentospora prolificans, 37 °C, 48 hours, resa time 17 hours
Protocol: as §1

[2] = system: Candida parapsilosis B66126; experiment: Antifungal activity in vitro (resazurin susceptibility screen), Inf. D; type: cell-based; conditions: 37 °C, 24 hours, resa time 4 hours; for pIC50 Inf. D: Candida parapsilosis B66126; for IC50: Lodderomyces parapsilosis, B66126, Candida parapsilosis B66126
Protocol: as §1

[3] = system: Aspergillus fumigatus B42928; experiment: Antifungal activity in vitro (resazurin susceptibility screen), Inf. E; type: cell-based; conditions: 27 °C, 48 hours, resa time 17 hours; for pIC50 Inf. E: Aspergillus fumigatus B42928; for IC50: Aspergillus fumigatus, B42928, Aspergillus fumigatus B42928
Protocol: as §1

[4] = system: Trichophyton rubrum B68183; experiment: Antifungal activity in vitro (resazurin susceptibility screen), Inf. C; type: cell-based; conditions: 27 °C, 7 days, resa time 24 hours; for pIC50 Inf. C: Trichophyton rubrum B68183; for IC50: Trichophyton rubrum, B68183, Trichophyton rubrum B68183
Protocol: as §1

Microsporum canis B68128 = experiment: Antifungal activity in vitro (resazurin susceptibility screen), Inf. B; type: cell-based; conditions: 27 °C, 9 days, resa time 24 hours; for pIC50 Inf. B: Microsporum canis B68128; for IC50: Microsporum canis, B68128, Microsporum canis B68128
Protocol: as §1

[5] = system: Scedosporium apiospermum IHEM3817; experiment: Antifungal activity in vitro (resazurin susceptibility screen), Inf. H; type: cell-based; conditions: 37 °C, 48 hours, resa time 17 hours; for IC50: Scedosporium apiospermum, IHEM3817, Scedosporium apiospermum IHEM3817
Protocol: as §1

[6] = system: Rhizomucor miehei IHEM13391; experiment: Antifungal activity in vitro (resazurin susceptibility screen), Inf. K; type: cell-based; conditions: 37 °C, 48 hours, resa time 17 hours; for IC50: Rhizomucor miehei, IHEM13391, Rhizomucor miehei IHEM13391
Protocol: as §1

[7] = system: Sporothrix schenkii B62482; experiment: Antifungal activity in vitro (resazurin susceptibility screen), Inf. A; type: cell-based; conditions: 27 °C, 4 days, resa time 24 hours; for pIC50 Inf. A: Sporothrix schenkii B62482; for IC50: Sporothrix, B62482, Sporothrix schenkii B62482
Protocol: as §1

[8] = system: Mucor circinelloides IHEM21105; experiment: Antifungal activity in vitro (resazurin susceptibility screen), Inf. L; type: cell-based; conditions: 27 °C, 48 hours, resa time 17 hours
Protocol: as §1

[9] = system: Trichophyton mentagrophytes B70554; experiment: Antifungal activity in vitro (resazurin susceptibility screen), Inf. G; type: cell-based; conditions: 27 °C, 7 days, resa time 24 hours; for pIC50 Inf. G: Trichophyton mentagrophytes B70554; for IC50: Trichophyton mentagrophytes, B70554, Trichophyton mentagrophytes B70554
Protocol: as §1

[10] = system: Cryptococcus neoformans B66663; experiment: Antifungal activity in vitro (resazurin susceptibility screen), Inf. F; type: cell-based; conditions: 37 °C, 24 hours, resa time 4 hours; for pIC50 Inf. F: Cryptococcus neoformans B66663; for IC50: Cryptococcus neoformans, B66663, Cryptococcus neoformans B66663
Protocol: as §1

[11] = system: Microsporum canis (strain B68128); experiment: Test D.4.1: activity against M. canis in guinea-pigs after oral treatment for 7 consecutive days; type: in vivo; parameters: key to semi-quantitative lesion score (mean): lesion score 0–3.5 by severity and size of lesion; conditions: oral 10 mg/kg once daily for 7 days
Protocol: The animals used in the tests described below were female Guinea pigs (Duncan-Hartley, Charles River, 200 g). These animals were kept in groups of 2 or 3 in cages of 56×33×20 cm^3. Food pellets (Carfil Quality) and water were available ad libitum in addition to a small daily amount of hay. Standard husbandry conditions were adopted: room temperature: 22° C., humidity level: 60% and a day-night cycle of 12 h.
For the preparation of inoculums, Microsporum canis (strain B68128) was grown on Sabouraud Dextrose Agar (SDA) plates for at least one week (7-10 days) before infection (27° C.). On the day of infection, spores were harvested by adding 4-5 ml sterile water on the plate and suspending the infectious material with a bend Pasteur pipette. From the recollected fluid, 10 μl was added to a KOVA counting chamber for determination of the number of spores in 1 square (average of several squares). If needed, additional dilutions (10× or 100×) were prepared. The average number of spores in one square×dilution×90.000=cfu/ml. An inoculum of 1×10^7 cfu/ml was prepared in a honey-water mixture (50%-50%).
In the tests described below, semi-quantitative lesion scores were given based on different clinical parameters. Scores between 0 and 3.5 were assigned based on the severity and size of the lesion. The criteria are listed in detail in Table 6.
The dorsum of the guinea pigs was shaved and further depilated for 3 minutes with Veet® creme before scarification with a steel brush. An inoculum of 10^6 cfu in 150 μl (75 mQ+75 μl honey) was applied to the wound using a micropipette with disposable tips. The animal was kept immobilized until the inoculum had completely dried. […]
vehicle: methocel 0.5%, Tween 80® (polysorbate 80), demineralised water reference compound: itraconazole at 6.25 mg/ml test compounds: prepared at 25 mg/ml, subsequently further diluted
Oral treatment (gavage 0.16 ml/100 g once daily) was started about 2 hours before infection and continued once daily for 7 consecutive days. The animals were weighed after 3 days of treatment to adjust for the dose.
Developments of lesions were evaluated following the semi-quantitative lesion scoring system (see Table 6) on days 3, 5, 7, 10, 12, 14, 17 and 20. The results are show in Table 7 (“DPI” means days post infection). Reported values in Table 7 are mean values.

IC50 [2] [nM]	IC50 [3] [nM]	IC50 [4] [nM]	IC50 (Microsporum canis B68128) [nM]	IC50 [7] [nM]	IC50 [9] [nM]	IC50 [10] [nM]	SMILES	pIC50 Inf. D [2]	pIC50 Inf. E [3]	pIC50 Inf. C [4]	pIC50 Inf. B (Microsporum canis B68128)	pIC50 Inf. A [7]	pIC50 Inf. G [9]	pIC50 Inf. F [10]	further results
							CC(F)(F)c1ccc([C@H]2NCc3c(Cl)cccc3-n3cccc32)cc1 (single isomer, unassigned) [Compound 3]								IC50 (Rhizopus oryzae IHEM5223): > 64600 nM; IC50 [1]: 708 nM
							CC(F)(F)c1ccc(C2NCc3c(Cl)cccc3-n3cccc32)cc1.Cl (stereo not shown) [Compound 1, 7-chloro-4-[4-(1,1-difluoroethyl)phenyl]-5,6-dihydro-4H-pyrrolo[1,2-a][1,4]-benzodiazepine.HCl]	5.70	6.72	6.91	6.45	4.68	6.89	5.30	pIC50 Inf. J (Rhizopus oryzae IHEM5223): <4.19; pIC50 Inf. H ([5]; Scedosporium apiospermum IHEM3817): <4.19; pIC50 Inf. K ([6]; Rhizomucor miehei IHEM13391): <4.19; IC50 [8]: > 64600 nM
							CC(F)(F)c1ccc(C2NCc3cc(Cl)cc(Cl)c3-n3cccc32)cc1.Cl (stereo not shown) [Compound 5, 8,10-dichloro-4-[4-(1,1-difluoroethyl)phenyl]-5,6-dihydro-4H-pyrrolo[1,2-a][1,4]-benzodiazepine.HCl]	<4.19	<4.19	4.22	<4.19	<4.19	<4.19	4.46	
							CC(F)(F)c1ccc(C2NCc3c(ccc(Cl)c3Cl)-n3cccc32)cc1.Cl (stereo not shown) [Compound 7, 7,8-dichloro-4-[4-(1,1-difluoroethyl)phenyl]-5,6-dihydro-4H-pyrrolo[1,2-a][1,4]-benzodiazepine.HCl]	<4.19	<4.19	5.40	5.40	<4.19	<4.19	<4.19	
> 64600	> 64600	> 64600	> 64600	> 64600	> 64600	> 64600	CC(F)(F)c1ccc(C2=NCc3c(ccc(Cl)c3Cl)-n3cccc32)cc1 [Compound 10, 7,8-dichloro-4-[4-(1,1-difluoroethyl)phenyl]-6H-pyrrolo[1,2-a][1,4]benzodiazepine]								
							CC(F)(F)c1ccc(C2NCc3c(Cl)ccc(Cl)c3-n3cccc32)cc1.Cl (stereo not shown) [Compound 11, 7,10-dichloro-4-[4-(1,1-difluoroethyl)phenyl]-5,6-dihydro-4H-pyrrolo[1,2-a][1,4]-benzodiazepine.HCl]	<4.19	<4.19	4.86	<4.19	<4.19	<4.19	<4.19	
							CC(F)(F)c1ccc(C2NCc3c(Cl)cc(Cl)cc3-n3cccc32)cc1.Cl (stereo not shown) [Compound 13, 7,9-dichloro-4-[4-(1,1-difluoroethyl)phenyl]-5,6-dihydro-4H-pyrrolo[1,2-a][1,4]-benzodiazepine.HCl]	<4.19	4.81	5.70	4.23	<4.19	5.14	<4.19	
631	224	42.7	490	> 64600	251	> 64600	CC(F)(F)c1ccc(C2=NCc3c(F)cccc3-n3cccc32)cc1 [Compound 15, 4-[4-(1,1-difluoroethyl)phenyl]-7-fluoro-6H-pyrrolo[1,2-a][1,4]benzodiazepine]								IC50 (Rhizopus oryzae IHEM5223): 33900 nM; IC50 [5]: > 64600 nM; IC50 [6]: > 64600 nM; IC50 [8]: > 64600 nM; IC50 [1]: 2510 nM
2340	501	148	2140	8130	1100	1620	CC(F)(F)c1ccc(C2=NCc3c(F)cc(F)cc3-n3cccc32)cc1 [Compound 18, 4-[4-(1,1-difluoroethyl)phenyl]-7,9-difluoro-6H-pyrrolo[1,2-a][1,4]benzodiazepine]								IC50 (Rhizopus oryzae IHEM5223): > 64600 nM; IC50 [5]: > 64600 nM; IC50 [6]: 50100 nM; IC50 [8]: > 64600 nM; IC50 [1]: 794 nM
2950	7940	7940	8130	7940	8130	5750	CC(F)(F)c1cc(C2=NCc3ccc(Cl)cc3-n3cccc32)ccc1F [Compound 34, 9-chloro-4-[3-(1,1-difluoroethyl)-4-fluorophenyl]-6H-pyrrolo[1,2-a][1,4]benzodiazepine]								
14800	1450	302	525	4270	1580	525	CC(F)(F)c1cc(C2=NCc3cccc(Cl)c3-n3cccc32)ccc1F [Compound 35, 10-chloro-4-[3-(1,1-difluoroethyl)-4-fluorophenyl]-6H-pyrrolo[1,2-a][1,4]-benzodiazepine]								
							CCC(C)n1ncn(-c2ccc(N3CCN(c4ccc(OCC5COC(Cn6cncn6)(c6ccc(Cl)cc6Cl)O5)cc4)CC3)cc2)c1=O (stereo not shown) [Itraconazole, reference compound]								semi-quantitative lesion score (mean) ([11]; 3 DPI): 0; semi-quantitative lesion score (mean) ([11]; 5 DPI): 0; semi-quantitative lesion score (mean) ([11]; 7 DPI): 0; semi-quantitative lesion score (mean) ([11]; 10 DPI): 0; semi-quantitative lesion score (mean) ([11]; 12 DPI): 0; semi-quantitative lesion score (mean) ([11]; 14 DPI): 0; semi-quantitative lesion score (mean) ([11]; 17 DPI): 0; semi-quantitative lesion score (mean) ([11]; 20 DPI): 0
